Like-named read-outs stand apart in the source and are kept apart here.
Legend:
[1] = system: myelocytes of rats; experiment: Formation of osteoclasts from rat myelocytes (RANKL + M-CSF, TRAP stain); type: cell-based, Wistar rats; details: Rattus norvegicus, Osteoclast, 216 h, 10 nM, 9 days
Description: Myelocytes were first prepared. Male Wistar rats with the body weight of 250 g to 300 g were used to prepare myelocytes. Under the condition of anaesthesia, the femurs of the rats were taken, and myelocytes were washed out with a phosphate buffer solution. […] After incubation for 9 days, monocytes in the marrow differentiated into osteoclasts. The osteoclasts were stained with a TRAP (tartrate-resistant acid phosphatase) stain reagent (Sigma, Louis, Mo., USA), and the number of the osteoclasts was calculated. Besides the same RANKL and M-CSF as the control group, various concentrations (0, 5, 25, 50, and 100 μM) of kinsenoside or 10 nM of estradiol (Wako, Japan) were added into culture plates, respectively. Then, rat myelocytes were incubated for 9 days, and the situation that the myelocytes differentiated into osteoclasts was observed. The percentage of the inhibition effect of kinsenoside and estradiol on the formation of osteoclasts was calculated with the following formula, and the result is shown in Table 9. Inhibition percentage (%)=(the number of osteoclasts of the control group−the number of osteoclasts of the experimental group)/the number of osteoclasts of the control group×100% In addition to the aforesaid RANKL, kinsenoside, and/or estradiol, the inhibitor of estradiol, Fulvestrant (Sigma, Louis, Mo., USA) (1 nM), was also added into culture plates. Then, rat myelocytes were incubated for 9 days, and the situation that the myelocytes differentiated into osteoclasts was observed. The percentage of the inhibition effect of kinsenoside on the formation of osteoclasts was calculated, and the result is shown in Table 9.

[2] = system: macrophages RAW 264.7; experiment: Formation of osteoclasts from macrophages RAW 264.7 (RANKL, TRAP stain); type: cell-based; details: Mus musculus, RAW264.7, 120 h; 10 nM, RANKL 50 ng/ml, 5 days; read-out: inhibition percentage
Description: If macrophages RAW 264.7 are incubated in culture plates containing 50 ng/ml of differentiation inducer, RANKL, they usually differentiate into osteoclasts after 5 days. In Experiment H, various concentrations (0, 10, and 50 μM) of kinsenoside or 10 nM of estradiol were added into culture plates containing macrophages RAW 264.7, respectively, and the macrophages RAW 264.7 were incubated for 5 days. […] The number of osteoclasts was counted, and the inhibition percentage of the formation of osteoclasts was calculated with the following formula, and the result is shown in Table 11. Inhibition percentage=(the number of osteoclasts in the control group−the number of osteoclasts in the experimental group)/the number of osteoclasts in the control group×100%

Question: What does the source list for `C[C@]12CC[C@@H]3c4ccc(O)cc4CC[C@H]3[C@@H]1CC[C@@H]2O` [estradiol, reference compound]?
Answer: inhibition at 0.01 µM ([1]; with Fulvestrant 1 nM, read-out: inhibition percentage Experimental Group II): 24 ± 13.5%; inhibition at 0.01 µM ([1]; without Fulvestrant, read-out: inhibition percentage Experimental Group I): 45.7 ± 10.5%; inhibition at 0.01 µM [2]: 61 ± 16%

From patent US8084431B2, “Method for inhibiting activation of macrophages, inhibiting formation of osteoclasts, inhibiting function of osteoclasts, and/or activating osteoblasts” (China Medical University, priority 2008, dated 2011)
